Source: ChEMBL document CHEMBL1201862, “PubChem BioAssay data set” (2004)
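Results reflect a 48-hour exposure of cells in 96-well plates to compound at five concentrations. Here, GI50 denotes the concentration required for 50% inhibition of growth.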 Activity calls are given as the source filed them. Cut-off read from the data, not from the text of the source: active = GI50 up to about 1.1 µM and inactive = higher.

Key:
Test in all cases: growth of human tumour cells (NCI), 48 h
786-0 = test system: 786-0
ACHN = test system: ACHN
CAKI-1 = test system: CAKI-1
HCT-116 = test system: HCT-116
HOP-62 = test system: HOP-62
HOP-92 = test system: HOP-92
IGROV-1 = test system: IGROV-1
K562 = test system: K562
NCI-H23 = test system: NCI-H23
NCI-H460 = test system: NCI-H460
RPMI-8226 = test system: RPMI-8226
SF-295 = test system: SF-295
SK-OV-3 = test system: SK-OV-3
SW-620 = test system: SW-620
UACC-62 = test system: UACC-62
UACC-257 = test system: UACC-257
UO-31 = test system: UO-31

Measured: GI50

COc1ccc(OC)c(/C=C/C(=O)C(C)(C)C)c1
inactive: 786-0 19.5 µM | ACHN 19.9 µM | CAKI-1 20.6 µM | HCT-116 17.9 µM | HOP-62 23.3 µM | HOP-92 18.7 µM | IGROV-1 18.2 µM | K562 20.8 µM | NCI-H23 19.6 µM | NCI-H460 34.8 µM | RPMI-8226 13.3 µM | SF-295 25 µM | SK-OV-3 37.2 µM | SW-620 14.5 µM | UACC-62 9.55 µM

CSc1nc2c(c(O)c(C)c(=O)n2C2OCC(OC(C)=O)C(OC(C)=O)C2OC(C)=O)c(=O)n1C (centres undefined)
inactive: 786-0 > 100 µM | ACHN > 100 µM | CAKI-1 > 100 µM | HCT-116 > 100 µM | HOP-62 > 100 µM | HOP-92 > 100 µM | IGROV-1 > 100 µM | K562 > 100 µM | NCI-H23 > 100 µM | NCI-H460 > 100 µM | RPMI-8226 > 100 µM | SF-295 > 100 µM | SK-OV-3 > 100 µM | SW-620 > 100 µM | UACC-257 > 100 µM | UACC-62 > 100 µM | UO-31 > 100 µM

Cc1ccccc1C1SCc2nc3ccccc3n21 (centres undefined)
inactive: 786-0 > 100 µM | ACHN > 100 µM | CAKI-1 > 100 µM | HCT-116 4.72 µM | HOP-92 2.43 µM | IGROV-1 > 100 µM | K562 3.77 µM | NCI-H23 12.8 µM | RPMI-8226 5.85 µM | SF-295 48.9 µM | SK-OV-3 > 100 µM | UACC-257 4.26 µM | UACC-62 7.28 µM | UO-31 > 100 µM

CC(C)(C)OC(=O)N[C@H]1CC(O)c2ccccc2N(CC(=O)O)C1=O (some centres undefined)
inactive: 786-0 > 100 µM | ACHN > 100 µM | CAKI-1 > 100 µM | HCT-116 > 100 µM | HOP-62 > 100 µM | HOP-92 > 100 µM | IGROV-1 > 100 µM | NCI-H23 > 100 µM | NCI-H460 > 100 µM | SF-295 > 100 µM | SK-OV-3 > 100 µM | SW-620 > 100 µM | UACC-257 > 100 µM | UACC-62 > 100 µM | UO-31 > 100 µM

COc1cc2cc3c4c(cc(OC)c(OC)c4c2cc1OC)CCN3C(=O)CCCC(=O)O
inactive: 786-0 > 100 µM | ACHN > 100 µM | CAKI-1 > 100 µM | HCT-116 > 100 µM | HOP-62 > 100 µM | HOP-92 > 100 µM | IGROV-1 > 100 µM | K562 > 100 µM | NCI-H23 > 100 µM | NCI-H460 > 100 µM | RPMI-8226 > 100 µM | SF-295 > 100 µM | SK-OV-3 > 100 µM | SW-620 > 100 µM | UACC-257 > 100 µM | UACC-62 > 100 µM | UO-31 > 100 µM

C/C=C1\CCC2c3[nH]c4ccccc4c3CCN2C1 (centres undefined)
inactive: 786-0 70.1 µM | ACHN > 100 µM | CAKI-1 > 100 µM | HCT-116 56 µM | HOP-62 > 100 µM | HOP-92 26.3 µM | IGROV-1 > 100 µM | K562 43.6 µM | NCI-H23 77.4 µM | NCI-H460 > 100 µM | SF-295 > 100 µM | SK-OV-3 > 100 µM | SW-620 > 100 µM | UACC-62 > 100 µM | UO-31 38.6 µM

CCOC(=O)/C(=C/c1ccccc1)N(CC)CC
inactive: 786-0 > 100 µM | ACHN > 100 µM | CAKI-1 > 100 µM | HCT-116 > 100 µM | HOP-62 > 100 µM | HOP-92 > 100 µM | IGROV-1 > 100 µM | K562 > 100 µM | NCI-H23 > 100 µM | NCI-H460 > 100 µM | RPMI-8226 > 100 µM | SF-295 > 100 µM | SK-OV-3 > 100 µM | SW-620 > 100 µM | UACC-257 > 100 µM | UACC-62 > 100 µM | UO-31 > 100 µM

N#C/C(=C\c1ccc[nH]1)C(=O)c1ccccc1
inactive: 786-0 > 100 µM | ACHN > 100 µM | CAKI-1 > 100 µM | HCT-116 > 100 µM | HOP-62 > 100 µM | HOP-92 70.8 µM | K562 > 100 µM | NCI-H23 > 100 µM | NCI-H460 > 100 µM | RPMI-8226 > 100 µM | SF-295 > 100 µM | SK-OV-3 > 100 µM | SW-620 > 100 µM | UACC-257 > 100 µM | UACC-62 > 100 µM | UO-31 > 100 µM

Nc1ccc(CCN2CCN(c3cccc(C(F)(F)F)c3)CC2)cc1
inactive: 786-0 84.3 µM | ACHN > 100 µM | CAKI-1 > 100 µM | HCT-116 > 100 µM | HOP-62 > 100 µM | HOP-92 54.8 µM | IGROV-1 > 100 µM | K562 70.1 µM | NCI-H23 > 100 µM | NCI-H460 > 100 µM | RPMI-8226 45.2 µM | SF-295 97.5 µM | SK-OV-3 > 100 µM | UACC-257 47 µM | UACC-62 > 100 µM | UO-31 5.74 µM

O=C(Nc1ccc(Cl)cc1)C1C(=O)C(=O)N(c2ccc(Cl)cc2)C1=O (centres undefined)
inactive: 786-0 > 100 µM | ACHN 89.9 µM | CAKI-1 > 100 µM | HCT-116 53.7 µM | HOP-92 29.1 µM | IGROV-1 > 100 µM | K562 41.1 µM | NCI-H23 > 100 µM | NCI-H460 > 100 µM | RPMI-8226 > 100 µM | SF-295 93.8 µM | SK-OV-3 > 100 µM | SW-620 > 100 µM | UACC-62 > 100 µM | UO-31 79.6 µM

CCCCCCCCCCCCCCCc1ccc(OCC(O)CO)cc1 (centres undefined)
inactive: ACHN 65 µM | CAKI-1 31.6 µM | HCT-116 17.1 µM | HOP-62 47.1 µM | HOP-92 20.7 µM | IGROV-1 31.3 µM | K562 > 100 µM | NCI-H23 17.8 µM | NCI-H460 24.3 µM | RPMI-8226 18.9 µM | SF-295 50.1 µM | SK-OV-3 99.3 µM | SW-620 22.3 µM | UACC-257 38.8 µM | UACC-62 23.9 µM | UO-31 > 100 µM

O=C(N/C(=C\c1ccc([N+](=O)[O-])cc1)c1nc2ccccc2s1)c1ccccc1
inactive: 786-0 18 µM | ACHN 29.2 µM | CAKI-1 31 µM | HCT-116 27 µM | HOP-62 35.6 µM | HOP-92 23.6 µM | IGROV-1 23 µM | K562 17.7 µM | NCI-H23 19.7 µM | RPMI-8226 19.2 µM | SK-OV-3 > 100 µM | SW-620 26.7 µM | UACC-257 28.1 µM | UACC-62 20.4 µM | UO-31 24.3 µM

O=C1CCC2(c3ccc(F)cc3)Nc3ccccc3N12 (centres undefined)
inactive: 786-0 > 100 µM | ACHN > 100 µM | CAKI-1 > 100 µM | HOP-62 > 100 µM | HOP-92 > 100 µM | IGROV-1 > 100 µM | K562 > 100 µM | NCI-H23 > 100 µM | NCI-H460 > 100 µM | RPMI-8226 > 100 µM | SF-295 > 100 µM | SK-OV-3 > 100 µM | SW-620 > 100 µM | UACC-257 > 100 µM | UACC-62 > 100 µM | UO-31 > 100 µM
